Data taken from US11648254B2 (Kumquat Biosciences Inc., priority 2021, dated 2023).
Read-outs that look alike come from different tables or passages of the source.

Columns and labels:
[1] = tested on: MIA PaCa-2 cells (K-Ras G12C); assay: Ras-SOS cellular growth inhibition assay (CellTiter-Glo, 3D); format: cell-based; settings: Homo sapiens
Procedure, shortened: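 Growth read by CellTiter-Glo luminescence about 5 days after dosing with 3-fold dilutions (9 points), added one day post-seeding. Cells: MIA PaCa-2, 3D culture on ultra-low-attachment surface, medium DMEM/Ham's F12 plus 10% FCS and 2.5% horse serum; IC50 by four-parameter fit.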

[2] = tested on: NCI-H1975 cells (EGFR T790M L858R); assay: EGFR-SOS cellular inhibition assay (CellTiter-Glo, 3D); format: cell-based; settings: Homo sapiens
SOS1 = SOS1 (Homo sapiens (Human), UniProt Q07889); assay: Ras-SOS interaction assay (HTRF); format: biochemical
Sequence of SOS1 (Q07889 564-1049): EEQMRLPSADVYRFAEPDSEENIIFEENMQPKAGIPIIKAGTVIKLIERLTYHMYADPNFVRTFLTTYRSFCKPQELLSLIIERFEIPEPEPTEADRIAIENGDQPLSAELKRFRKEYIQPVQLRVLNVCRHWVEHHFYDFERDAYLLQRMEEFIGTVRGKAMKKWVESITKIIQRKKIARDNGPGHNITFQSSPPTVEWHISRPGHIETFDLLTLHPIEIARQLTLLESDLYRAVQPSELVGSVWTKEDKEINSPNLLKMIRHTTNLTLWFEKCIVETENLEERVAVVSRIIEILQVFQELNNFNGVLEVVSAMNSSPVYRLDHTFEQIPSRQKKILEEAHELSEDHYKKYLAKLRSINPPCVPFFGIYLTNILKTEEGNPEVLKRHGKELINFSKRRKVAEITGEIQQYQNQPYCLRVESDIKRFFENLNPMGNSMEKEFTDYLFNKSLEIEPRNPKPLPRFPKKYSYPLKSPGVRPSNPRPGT

[3] = MIA PaCa-2, 120 h, MIA PaCa-2, 3D proliferation, about 5 days, read-out: Bio-Cell-Prolif-3D (MiaPaca2 IC50)
[4] = 120 h, NCI-H1975, 3D proliferation, about 5 days, read-out: Bio-Cell-Prolif-3D (H1975 IC50)
[5] = NCI-H1975, EGFR T790M L858R, read-out: IC50 in inhibiting growth of NCI-H1975 cell line
[6] = K-RasG13D utilized, read-out: IC50 inhibition of SOS
[7] = K-RasG13D, read-out: IC50 value against SOS1
[8] = MIA PaCa-2, MIA PaCa-2, read-out: IC50 in inhibiting MIA PaCa-2 cell growth

IC50 [1, 3] | IC50 [2, 4] | IC50 [2, 5] | IC50 (SOS1; [6]) | IC50 (SOS1; [7]) | IC50 [1, 8] | SMILES
1000 to 10000 nM | ≤ 1000 nM | < 500 nM | < 100 nM | < 50 nM |  | COc1nc2nc(C)nc(N[C@H](C)c3cccc(C(F)(F)F)c3F)c2cc1C1CCN(C(=O)[C@@H]2COCCO2)CC1 [Compound 301, ((S)-1,4-dioxan-2-yl)(4-(4-(((R)-1-(2-fluoro-3-(trifluoromethyl)phenyl)ethyl)amino)-7-methoxy-2-methylpyrido[2,3-d]pyrimidin-6-yl)piperidin-1-yl)methanone]
≤ 1000 nM | ≤ 1000 nM | < 500 nM | < 100 nM | < 50 nM |  | COc1nc2nc(C)nc(N[C@H](C)c3cccc(C(F)(F)F)c3F)c2cc1C1CCN(C(=O)CN(C)C)CC1 [Compound 302, (R)-2-(dimethylamino)-1-(4-(4-((1-(2-fluoro-3-(trifluoromethyl)phenyl)ethyl)amino)-7-methoxy-2-methylpyrido[2,3-d]pyrimidin-6-yl)piperidin-1-yl)ethan-1-one]
≤ 1000 nM | ≤ 1000 nM | < 500 nM | < 100 nM | < 50 nM | < 500 nM | COc1nc2nc(C)nc(N[C@H](C)c3cccc(C(F)(F)F)c3F)c2cc1C1CCN(C(=O)CO)CC1 [Compound 304, (R)-1-(4-(4-((1-(2-fluoro-3-(trifluoromethyl)phenyl)ethyl)amino)-7-methoxy-2-methylpyrido[2,3-d]pyrimidin-6-yl)piperidin-1-yl)-2-hydroxyethan-1-one]
≤ 1000 nM | ≤ 1000 nM |  | < 100 nM | < 50 nM | < 500 nM | COc1nc2nc(C)nc(N[C@H](C)c3cccc(C(F)(F)CO)c3F)c2cc1N1CCS(=O)(=O)CC1 [Compound 307, (R)-4-(4-((1-(3-(1,1-difluoro-2-hydroxyethyl)-2-fluorophenyl)ethyl)amino)-7-methoxy-2-methylpyrido[2,3-d]pyrimidin-6-yl)thiomorpholine 1,1-dioxide]
≤ 1000 nM | ≤ 1000 nM | < 500 nM | < 100 nM | < 50 nM |  | COc1nc2nc(C)nc(N[C@H](C)c3cccc(C(F)(F)F)c3F)c2cc1C1CCN(C)CC1 [Compound 309, (R)-N-(1-(2-fluoro-3-(trifluoromethyl)phenyl)ethyl)-7-methoxy-2-methyl-6-(1-methylpiperidin-4-yl)pyrido[2,3-d]pyrimidin-4-amine]
≤ 1000 nM | ≤ 1000 nM | < 500 nM | < 100 nM | < 50 nM | < 500 nM | COc1nc2nc(C)nc(N[C@H](C)c3cccc(C(F)(F)F)c3F)c2cc1N1CCN(C(=O)CN(C)C)CC1 [Compound 312, (R)-2-(dimethylamino)-1-(4-(4-((1-(2-fluoro-3-(trifluoromethyl)phenyl)ethyl)amino)-7-methoxy-2-methylpyrido[2,3-d]pyrimidin-6-yl)piperazin-1-yl)ethan-1-one]
≤ 1000 nM | ≤ 1000 nM | < 500 nM | < 100 nM | < 50 nM | < 500 nM | COc1nc2nc(C)nc(N[C@H](C)c3cccc(C(F)(F)F)c3F)c2cc1N1CCN(C(=O)CO)CC1 [Compound 313, (R)-1-(4-(4-((1-(2-fluoro-3-(trifluoromethyl)phenyl)ethyl)amino)-7-methoxy-2-methylpyrido[2,3-d]pyrimidin-6-yl)piperazin-1-yl)-2-hydroxyethan-1-one]
≤ 1000 nM | ≤ 1000 nM |  | < 100 nM | < 50 nM | < 500 nM | CCN1CCN(c2cc3c(N[C@H](C)c4cccc(C(F)F)c4F)nc(C)nc3nc2OCCOC)CC1 [Compound 314, (R)-N-(1-(3-(difluoromethyl)-2-fluorophenyl)ethyl)-6-(4-ethylpiperazin-1-yl)-7-(2-methoxyethoxy)-2-methylpyrido[2,3-d] pyrimidin-4-amine]
1000 to 10000 nM | ≤ 1000 nM | < 500 nM | < 100 nM |  |  | COc1nc2ncnc(N[C@H](C)c3cccc(C(F)F)c3F)c2cc1C1CCS(=O)(=O)CC1 [Compound 315, (R)-4-(4-((1-(3-(difluoromethyl)-2-fluorophenyl)ethyl)amino)-7-methoxypyrido[2,3-d]pyrimidin-6-yl)tetrahydro-2H-thiopyran 1,1-dioxide]
1000 to 10000 nM | ≤ 1000 nM | < 500 nM | < 100 nM | < 50 nM |  | CC(C)N1CCC(c2cc3c(N[C@H](C)c4cccc(C(F)F)c4F)ncnc3nc2OC2COC2)CC1 [Compound 317, (R)-N-(1-(3-(difluoromethyl)-2-fluorophenyl)ethyl)-6-(1-isopropylpiperidin-4-yl)-7-(oxetan-3-yloxy)pyrido[2,3-d] pyrimidin-4-amine]
≤ 1000 nM | ≤ 1000 nM |  | < 100 nM | < 50 nM |  | CCN1CCC(c2cc3c(N[C@H](C)c4cccc(C(F)F)c4F)nc(C)nc3nc2OC2CN(C)C2)CC1 [Compound 318]
≤ 1000 nM | ≤ 1000 nM | < 500 nM | < 100 nM | < 50 nM |  | COc1nc2nc(C)nc(N[C@H](C)c3cccc(C(F)F)c3F)c2cc1C1(C#N)CCOCC1 [Compound 320, (R)-4-(4-((1-(3-(difluoromethyl)-2-fluorophenyl)ethyl)amino)-7-methoxy-2-methylpyrido[2,3-d]pyrimidin-6-yl)tetrahydro-2H-pyran-4-carbonitrile]
≤ 1000 nM | ≤ 1000 nM | < 500 nM | < 100 nM | < 50 nM |  | COc1nc2nc(C)nc(N[C@H](C)c3cccc(C(F)(F)C(C)(C)O)c3F)c2cc1C1CCS(=O)(=O)CC1 [Compound 321, (R)-4-(4-((1-(3-(1,1-difluoro-2-hydroxy-2-methylpropyl)-2-fluorophenyl)ethyl)amino)-7-methoxy-2-methylpyrido[2,3-d]pyrimidin-6-yl)tetrahydro-2H-thiopyran 1,1-dioxide]
≤ 1000 nM | ≤ 1000 nM | < 500 nM | < 100 nM | < 50 nM |  | COc1nc2nc(C)nc(N[C@H](C)c3cccc(C(F)(F)C(C)(C)O)c3F)c2cc1N1CCN(C)CC1 [Compound 323, (R)-1,1-difluoro-1-(2-fluoro-3-(1-((7-methoxy-2-methyl-6-(4-methylpiperazin-1-yl)pyrido[2,3-d]pyrimidin-4-yl)amino)ethyl)phenyl)-2-methylpropan-2-ol]
≤ 1000 nM | ≤ 1000 nM | < 500 nM | < 100 nM | < 50 nM | < 500 nM | COc1nc2nc(C)nc(N[C@H](C)c3cccc(C(F)(F)C(C)(C)O)c3)c2cc1N1CCN(C)CC1 [Compound 324, (R)-1,1-difluoro-1-(3-(1-((7-methoxy-2-methyl-6-(4-methylpiperazin-1-yl)pyrido[2,3-d]pyrimidin-4-yl)amino)ethyl)phenyl)-2-methylpropan-2-ol]
≤ 1000 nM | ≤ 1000 nM | < 500 nM | < 100 nM | < 50 nM |  | COc1nc2nc(OC[C@@H]3CCCN3C)nc(N[C@H](C)c3cccc(C(F)F)c3F)c2cc1C1(C#N)CC1 [Compound 326, 1-(4-(((R)-1-(3-(difluoromethyl)-2-fluorophenyl)ethyl)amino)-7-methoxy-2-(((S)-1-methylpyrrolidin-2-yl)methoxy)pyrido[2,3-d]pyrimidin-6-yl)cyclopropane-1-carbonitrile]
≤ 1000 nM | ≤ 1000 nM | < 500 nM | < 100 nM | < 50 nM | < 500 nM | Cc1c([C@@H](C)Nc2ncnc3nc(Cl)c(N4CCS(=O)(=O)CC4)cc23)cccc1C(F)(F)F [Compound 328, (R)-4-(7-chloro-4-((1-(2-methyl-3-(trifluoromethyl)phenyl)ethyl)amino)pyrido[2,3-d]pyrimidin-6-yl)thiomorpholine 1,1-dioxide]
≤ 1000 nM | ≤ 1000 nM | < 500 nM | < 100 nM | < 50 nM | < 500 nM | C[C@@H](Nc1ncnc2nc(Cl)c(N3CCS(=O)(=O)CC3)cc12)c1cccc(C(F)(F)F)c1F [Compound 330, (R)-4-(7-chloro-4-((1-(2-fluoro-3-(trifluoromethyl)phenyl)ethyl)amino)pyrido[2,3-d]pyrimidin-6-yl)thiomorpholine 1,1-dioxide]
≤ 1000 nM | ≤ 1000 nM | < 500 nM | < 100 nM | < 50 nM | < 500 nM | C[C@@H](Nc1ncnc2nc(Cl)c(C3CCS(=O)(=O)CC3)cc12)c1cccc(C(F)(F)F)c1F [Compound 331, (R)-4-(7-chloro-4-((1-(2-fluoro-3-(trifluoromethyl)phenyl)ethyl)amino)pyrido[2,3-d]pyrimidin-6-yl)tetrahydro-2H-thiopyran 1,1-dioxide]
 |  | < 500 nM | < 100 nM | < 50 nM | < 500 nM | Cc1nc(N[C@H](C)c2cccc(C(F)F)c2F)c2cc(C3CCN(C)CC3)c(OCCN(C)C)nc2n1 [Compound 334, (R)-N-(1-(3-(difluoromethyl)-2-fluorophenyl)ethyl)-7-(2-(dimethylamino)ethoxy)-2-methyl-6-(1-methylpiperidin-4-yl)pyrido[2,3-d]pyrimidin-4-amine]
